Experimental data: patent US20240376074A1, “NAMPT INHIBITORS AND USES THEREOF” (Remedy Plan, Inc., priority 2021, published 2024)

Molecular target: T1, NAMPT (Homo sapiens, UniProt P43490)
T1 construct: purchased Abcam ab221819
Assay: NAMPT Activity Assay (Abcam #ab221819)
Assay type: biochemical
Conditions: purified NAMPT, percent inhibition from OD450 nm; compound concentration not given
Description: The NAMPT Activity Assay (Abcam #ab221819) was performed following manufacturers two-step reaction protocol. Briefly, compounds were added to a clear 96-well plate using the HP D300e Digital Dispenser. Purified NAMPT was added to all wells except the No NAMPT controls. Reaction Mix #1 was added to each well and the plate was incubated at 30*C for 1 hr followed by the addition of Reaction Mix #2. Absorbance was measured at OD450 nm using a multimode plate reader. Readings were recorded for 5 minutes and percent inhibition was calculated using: (1-(OD450 nm compound/OD450nm no drug))*100.

T1 sequence (P43490 whole entry): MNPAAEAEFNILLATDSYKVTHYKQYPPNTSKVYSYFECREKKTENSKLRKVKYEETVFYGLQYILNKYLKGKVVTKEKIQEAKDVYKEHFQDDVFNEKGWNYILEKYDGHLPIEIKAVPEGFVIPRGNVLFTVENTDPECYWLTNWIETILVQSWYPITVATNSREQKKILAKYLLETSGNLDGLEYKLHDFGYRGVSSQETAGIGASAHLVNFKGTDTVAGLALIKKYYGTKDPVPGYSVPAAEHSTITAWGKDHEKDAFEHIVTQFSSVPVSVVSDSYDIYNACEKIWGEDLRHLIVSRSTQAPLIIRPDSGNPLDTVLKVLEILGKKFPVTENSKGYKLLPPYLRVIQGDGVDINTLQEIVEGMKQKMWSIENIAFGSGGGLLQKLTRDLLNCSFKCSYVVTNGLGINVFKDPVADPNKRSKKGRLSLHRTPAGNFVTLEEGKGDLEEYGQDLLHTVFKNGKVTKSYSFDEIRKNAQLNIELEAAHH

Compound	NAMPT Inhibition Code*
CC(=O)N(CC(F)F)c1ccc(-c2ccc(NC(=O)COc3cccnc3)cn2)cc1Cl [I-T2291, N-[6-[4-[acetyl(2,2-difluoroethyl)amino]-3-chloro-phenyl]-3-pyridyl]-2-(3-pyridyloxy)acetamide]	C (C = ≥66% inhibition)
COC(=O)c1cc(-c2ccc(C(=O)NCCCn3ccnc3)cn2)ccc1N(CC1CC1)C(C)=O [I-T2300, Methyl 2-[acetyl(cyclopropylmethyl)amino]-5-[5-(3-imidazol-1-ylpropylcarbamoyl)-2-pyridyl]benzoate]	C (C = ≥66% inhibition)
COC(=O)c1cc(-c2ccc(C(=O)NCCCc3cn[nH]c3)cn2)ccc1N(CC1CC1)C(C)=O [I-T2298, Methyl 2-[acetyl(cyclopropylmethyl)amino]-5-[5-[3-(1H-pyrazol-4-yl)propylcarbamoyl]-2-pyridyl]benzoate]	C (C = ≥66% inhibition)
CC(=O)N(CC(F)F)c1ccc(-c2ccc(C(=O)NCCc3cn[nH]c3)cn2)cc1Cl [I-T2114, 6-[4-[Acetyl(2,2-difluoroethyl)amino]-3-chloro-phenyl]-N-[2-(1H-pyrazol-4-yl)ethyl]pyridine-3-carboxamide]	A (*A = <33% inhibition)
CC(=O)N(CC1CC1)c1ccc(-c2ccc(NC(=O)/C=C/c3cccnc3)cn2)cc1Cl [I-T2124, (E)-N-[6-[4-[acetyl(cyclopropylmethyl)amino]-3-chloro-phenyl]-3-pyridyl]-3-(3-pyridyl)prop-2-enamide]	C (C = ≥66% inhibition)
CC(=O)N(CC(F)F)c1ccc(-c2ccc(NC(=O)C3CC3c3cccnc3)cn2)cc1Cl (centres unmarked) [I-T2294, N-[6-[4-[acetyl(2,2-difluoroethyl)amino]-3-chloro-phenyl]-3-pyridyl]-2-(3-pyridyl)cyclopropane carboxamide]	C (C = ≥66% inhibition)
CC(=O)N(CC(F)F)c1ccc(-c2ccc(NC(=O)Cc3cccnc3)cn2)cc1Cl [I-T2290, N-[6-[4-[acetyl(2,2-difluoroethyl)amino]-3-chloro-phenyl]-3-pyridyl]-2-(3-pyridyl) acetamide]	C (C = ≥66% inhibition)
COC(=O)c1cc(-c2ccc(C(=O)Nc3cnc4nccn4c3)cn2)ccc1N(CC1CC1)C(C)=O [I-T2295, Methyl 2-[acetyl(cyclopropylmethyl)amino]-5-[5-(imidazo[1,2-a]pyrimidin-6-ylcarbamoyl)-2-pyridyl]benzoate]	C (C = ≥66% inhibition)

Continued, values first:

NAMPT Inhibition Code*	Compound
A (*A = <33% inhibition)	CC(=O)N(CC1COC1)c1ccc(-c2ccc(C(=O)NCc3ccccc3)cn2)cc1Cl [I-T2327, 6-[4-[acetyl(oxetan-3-ylmethyl)amino]-3-chloro-phenyl]-N-benzyl-pyridine-3-carboxamide]
A (*A = <33% inhibition)	CC(=O)N(CC1CC1)c1ccc(-c2ccc(C(=O)NCC3CCCCO3)cn2)cc1Cl (centres unmarked) [I-T2340, 6-[4-[acetyl(cyclopropylmethyl)amino]-3-chloro-phenyl]-N-(tetrahydropyran-2-ylmethyl)pyridine-3-carboxamide]
C (C = ≥66% inhibition)	CC(=O)N(CC1CC1)c1ccc(-c2ccc(C(=O)NCCCc3cc[nH]n3)cn2)cc1Cl [I-T2127, 6-[4-[Acetyl(cyclopropylmethyl)amino]-3-chloro-phenyl]-N-[3-(1H-pyrazol-3-yl)propyl]pyridine-3-carboxamide]
C (C = ≥66% inhibition)	COC(=O)c1cc(-c2ccc(C(=O)NCCCc3cc[nH]n3)cn2)ccc1N(CC1CC1)C(C)=O [I-T2299, Methyl 2-[acetyl(cyclopropylmethyl)amino]-5-[5-[3-(1H-pyrazol-3-yl)propylcarbamoyl]-2-pyridyl]benzoate]
A (*A = <33% inhibition)	CC(=O)N(CC1CC1)c1ccc(-c2ccc(C(=O)NCc3cc[nH]n3)cn2)cc1Cl [I-T2132, 6-[4-[Acetyl(cyclopropylmethyl)amino]-3-chloro-phenyl]-N-(1H-pyrazol-3-ylmethyl)pyridine-3-carboxamide]
A (*A = <33% inhibition)	CC(=O)N(CC1CC1)c1ccc(-c2ccc(C(=O)NCC3CCCN(C)C3)cn2)cc1Cl (centres unmarked) [I-T2338, 6-[4-[acetyl(cyclopropylmethyl)amino]-3-chloro-phenyl]-N-[(1-methyl-3-piperidyl)methyl]pyridine-3-carboxamide]
A (*A = <33% inhibition)	CC(=O)N(CC1CC1)c1ccc(-c2ccc(C(=O)NCc3cncnc3)cn2)cc1Cl [I-T2147, 6-[4-[Acetyl(cyclopropylmethyl)amino]-3-chloro-phenyl]-N-(pyrimidin-5-ylmethyl)pyridine-3-carboxamide]
C (C = ≥66% inhibition)	CC(=O)N(CC1CC1)c1ccc(-c2ccc(C(=O)NCc3ccc(Br)nc3)cn2)cc1Cl [I-T2370, 6-[4-[acetyl(cyclopropylmethyl)amino]-3-chloro-phenyl]-N-[(6-bromo-3-pyridyl)methyl]pyridine-3-carboxamide]
A (*A = <33% inhibition)	CC(=O)N(CC1CC1)c1ccc(-c2ccc(C(=O)NCC3CCOC3)cn2)cc1Cl (centres unmarked) [I-T2115, 6-[4-[Acetyl(cyclopropylmethyl)amino]-3-chloro-phenyl]-N-(tetrahydrofuran-3-ylmethyl) pyridine-3-carboxamide]
A (*A = <33% inhibition)	CC(=O)N(CC1CC1)c1ccc(-c2ccc(C(=O)NCc3cnccn3)cn2)cc1Cl [I-T2154, 6-[4-[Acetyl(cyclopropylmethyl)amino]-3-chloro-phenyl]-N-(pyrazin-2-ylmethyl)pyridine-3-carboxamide]
C (C = ≥66% inhibition)	CC(=O)N(CC1CC1)c1ccc(-c2ccc(C(=O)NCc3ccccc3)cn2)cc1Cl [I-T2113, 6-[4-[Acetyl(cyclopropylmethyl)amino]-3-chloro-phenyl]-N-benzyl-pyridine-3-carboxamide]
C (C = ≥66% inhibition)	CC(=O)N(CC1CC1)c1ccc(-c2ccc(C(=O)NCCc3cncs3)cn2)cc1Cl [I-T2360, 6-[4-[acetyl(cyclopropylmethyl)amino]-3-chloro-phenyl]-N-(2-thiazol-5-ylethyl)pyridine-3-carboxamide]
